Counter-ions that a name gives are not always drawn.

Data set [1] has as its system FaDu (hypopharyngeal carcinoma). As to the kind of experiment: SRB cytotoxicity assay, FaDu. As to conditions: Homo sapiens, 72 h of treatment, mean ± standard mean error. The class given is cell-based. The source says:
(§1) The cell lines were obtained from Department of Oncology (Martin-Luther-University Halle Wittenberg; they were bought from ATCC; A 375 (CRL-1619), HT29 (HTB-38), MCF7 (HTM-22), A2780 (HTP-77), FaDu (HTP-43), NIH 3T3 (CRL-1658), HEK-293 (CRL-1573)). Cultures were maintained as monolayers in RPMI 1640 medium with L-glutamine (Capricorn Scientific GmbH, Ebsdorfergrund, Germany) supplemented with 10% heat inactivated fetal bovine serum (Sigma-Aldrich Chemie GmbH, Steinheim, Germany) and penicillin/streptomycin (1%, Capricorn Scientific GmbH, Ebsdorfergrund, Germany) at 37 °C in a humidified atmosphere with 5% CO2. The cytotoxicity of the compounds was evaluated using the sulforhodamine-B (Kiton-Red S, ABCR) micro culture colorimetric assay using confluent cells in 96-well plates with the seeding of the cells on day 0 applying appropriate cell densities to prevent confluence of the cells during the period of the experiment. On day 1, the cells were treated with six different concentrations (1, 3, 7, 12, 20, and 30 μM); thereby, the final concentration of DMSO was always <0.5%, generally regarded as non-toxic to the cells. On day 4, the supernatant medium was discarded; the cells were fixed with 10% trichloroacetic acid. After another day at 4 °C, the cells were washed in a strip washer and dyed with the SRB solution (100 μL, 0.4% in 1% acetic acid) for about 20 min to be followed by washing of the plates (four times, 1% acetic acid) and air-drying overnight. Furthermore, tris base solution (200 μL, 10 mM) was added to each well and absorbance was measured at λ = 570 nm employing a reader (96 wells, Tecan Spectra, Crailsheim, Germany). The EC50 values were averaged from three independent experiments performed each in triplicate calculated from semi logarithmic dose response curves applying a non-linear four-parameter Hills-slope equation (GraphPad Prism5; variables top and bottom were set to 100 and 0, respectively).
In general terms: The SRB assay estimates cell density from bound dye.

Data set [2] concerns MCF-7 (breast adenocarcinoma). As to the kind of experiment: SRB cytotoxicity assay, MCF-7. The data set is classed as cell-based. The note with it: Homo sapiens, MCF7, 72 h of treatment, mean ± standard mean error.
Text: as §1

Data set [3] has as its system A2780 (ovarian carcinoma). Nature of the data set: SRB cytotoxicity assay, A2780. As to conditions: Homo sapiens, 72 h of treatment, mean ± standard mean error. The data set is classed as cell-based.
Text: as §1

Data set [4] has as its system NIH 3T3 (fibroblasts), non-malignant. As to the kind of experiment: SRB cytotoxicity assay, NIH 3T3. The data set is classed as cell-based. The note with it: Mus musculus, NIH3T3, 72 h, 72 h of treatment, mean ± standard mean error.
Text: as §1

Data set [5] has as its system HT29 (colon adenocarcinoma). Nature of the data set: SRB cytotoxicity assay, HT29. The class given is cell-based, human. The note with it: 72 h of treatment, mean ± standard mean error.
Text: as §1

Data set [6] relates to A375 (melanoma). As to the kind of experiment: SRB cytotoxicity assay, A375. The class given is cell-based, human. As to conditions: Homo sapiens, A-375, 72 h, 72 h of treatment, mean ± standard mean error.
Text: as §1

As a reminder, the melting point is the temperature of the solid-liquid transition. In the case of `CCN(CC)c1ccc2c(-c3ccccc3C(=O)N3CCN(C(=O)[C@]45CCC(C)(C)CC4C4=CCC6[C@@]7(C)CC[C@H](OC(C)=O)C(C)(C)C7CC[C@@]6(C)[C@]4(C)CC5)CC3)c3ccc(=[N+](CC)CC)cc-3oc2c1` (stereo partly drawn) (as salt: chloride) [compound 14, 9-[2-[[4-(3β-Acetyloxy-28-oxo-olean-12-en-28-yl)-1-piperazinyl]carbonyl]phenyl]-3,6-bis(diethylamino)-xanthylium chloride], the melting point is 246 to 252 °C.

For `CCN(CC)c1ccc2c(-c3ccccc3C(=O)N3CCN(C(=O)[C@]45CC[C@@H](C)[C@H](C)C4C4=CCC6[C@@]7(C)CC[C@H](OC(C)=O)C(C)(C)C7CC[C@@]6(C)[C@]4(C)CC5)CC3)c3ccc(=[N+](CC)CC)cc-3oc2c1` (stereo partly drawn) (as salt: chloride) [compound 15, 9-[2-[[4-(3β-Acetyloxy-28-oxo-ursan-12-en-28-yl)-1-piperazinyl]carbonyl]phenyl]-3,6-bis(diethylamino)-xanthylium chloride], the melting point is 245 to 251 °C.

Regarding `CCN(CC)c1ccc2c(-c3ccccc3C(=O)N3CCN(C(=O)[C@]45CC[C@@H](C(C)=O)C4C4CCC6[C@@]7(C)CC[C@H](OC(C)=O)C(C)(C)C7CC[C@@]6(C)[C@]4(C)CC5)CC3)c3ccc(=[N+](CC)CC)cc-3oc2c1` (stereo partly drawn) (as salt: chloride) [compound 16, 9-[2-[[4-(3β-Acetyloxy-20,28-dioxo-30-norlupan-28-yl)-1-piperazinyl]carbonyl]phenyl]-3,6-bis(diethylamino)-xanthylium chloride], the melting point lay within 247 to 254 °C.

`CCN(CC)c1ccc2c(-c3ccccc3C(=O)N3CCCN(C(=O)[C@]45CC[C@@H](C(C)=O)C4C4CCC6[C@@]7(C)CC[C@H](OC(C)=O)C(C)(C)C7CC[C@@]6(C)[C@]4(C)CC5)CC3)c3ccc(=[N+](CC)CC)cc-3oc2c1` (stereo partly drawn) (as salt: chloride) [compound 20, 9-[2-[[4-(3β-Acetyloxy-20,28-dioxo-30-norlupan-28-yl)-1-homopiperazinyl]carbonyl]phenyl]-3,6-bis(diethylamino)-xanthylium chloride]: the melting point was 248 to 250 °C (dec.).

The compound `CC(=O)O[C@H]1CC[C@@]2(C)C(CC[C@]3(C)C2CC=C2C4CC(C)(C)CC[C@]4(C(=O)N4CCCN(C(=O)c5ccccc5C5=c6cc7c8c(c6Oc6c5cc5c9c6CCCN9CCC5)CCC[N+]=8CCC7)CC4)CC[C@]23C)C1(C)C` (some centres unmarked) (as salt: chloride) [compound 26] returned a melting point above 300 °C.

In the case of `CC(=O)O[C@H]1CC[C@@]2(C)C(CC[C@]3(C)C2CC=C2C4[C@@H](C)[C@H](C)CC[C@]4(C(=O)N4CCCN(C(=O)c5ccccc5C5=c6cc7c8c(c6Oc6c5cc5c9c6CCCN9CCC5)CCC[N+]=8CCC7)CC4)CC[C@]23C)C1(C)C` (some centres unmarked) (as salt: chloride) [compound 27], the melting point is above 300 °C.

For `CC(=O)O[C@H]1CC[C@@]2(C)C(CC[C@]3(C)C2CCC2C4[C@H](C(C)=O)CC[C@]4(C(=O)N4CCCN(C(=O)c5ccccc5C5=c6cc7c8c(c6Oc6c5cc5c9c6CCCN9CCC5)CCC[N+]=8CCC7)CC4)CC[C@]23C)C1(C)C` (some centres unmarked) (as salt: chloride) [compound 28], the melting point is above 300 °C.

In general, EC50 refers to the concentration giving half of the maximal effect. For the compound `C=C(C)[C@@H]1CC[C@]2(C(=O)O)CC[C@]3(C)[C@H](CC[C@@H]4[C@@]5(C)CC[C@H](O)C(C)(C)[C@@H]5CC[C@]43C)[C@@H]12` [BA, betulinic acid, reference compound], the EC50 in data set [1] was 13700 ± 900 nM; in data set [2] it was 10200 ± 1200 nM; in data set [3] it was 8800 ± 900 nM; in data set [4], 16100 ± 1400 nM; in data set [5] (Homo sapiens, HT-29, 72 h), 14400 ± 2300 nM; in data set [6] it was 17700 ± 400 nM.

As to `COc1cccc2c1C(=O)c1c(O)c3c(c(O)c1C2=O)C[C@@](O)(C(=O)CO)C[C@@H]3O[C@H]1C[C@H](N)[C@H](O)[C@H](C)O1` [DX, doxorubicin, reference compound], the EC50 in data set [1] stood at 1700 ± 300 nM; in data set [2] it was 1100 ± 300 nM; in data set [3], 20 ± 10 nM; in data set [5] (Homo sapiens, HT-29, 72 h), 900 ± 200 nM.

As for `CC1(C)CC[C@]2(C(=O)O)CC[C@]3(C)C(=CC[C@@H]4[C@@]5(C)CC[C@H](O)C(C)(C)[C@@H]5CC[C@]43C)[C@@H]2C1` [OA, oleanolic acid, reference compound], the half-maximal effective concentration (EC50) in data set [1] was above 30000 nM; in data set [2] it was above 30000 nM; in data set [3], above 30000 nM; in data set [4], above 30000 nM; in data set [5] (Homo sapiens, HT-29, 72 h), above 30000 nM; in data set [6], above 30000 nM.

As to `CC(=O)[C@@H]1CC[C@]2(C(=O)O)CC[C@]3(C)[C@H](CC[C@@H]4[C@@]5(C)CC[C@H](O)C(C)(C)[C@@H]5CC[C@]43C)[C@@H]12` [PA, platanic acid, reference compound], the EC50 was above 30000 nM in data set [1]; above 30000 nM in data set [2]; above 30000 nM in data set [3]; above 30000 nM in data set [4]; above 30000 nM in data set [5] (Homo sapiens, HT-29, 72 h); above 30000 nM in data set [6].

As to `C[C@H]1[C@H](C)CC[C@]2(C(=O)O)CC[C@]3(C)C(=CC[C@@H]4[C@@]5(C)CC[C@H](O)C(C)(C)[C@@H]5CC[C@]43C)[C@H]12` [UA, ursolic acid, reference compound], the values for the EC50 in data set [1] and in data set [6] were 18200 ± 1700 nM and 15400 ± 1000 nM, respectively.

Compound `CC(=O)O[C@H]1CC[C@@]2(C)C(CC[C@]3(C)C2CC=C2C4CC(C)(C)CC[C@]4(C(=O)N4CCNCC4)CC[C@]23C)C1(C)C` (stereo partly drawn) [compound 6, 3β-Acetyloxy-28-(1-piperazinyl)-olean-12-en-28-one] displayed a melting point of 172 to 175 °C. Also, the response in data set [2] was half-maximal at 1700 ± 200 nM (EC50). Further, in data set [3], it took 1700 ± 100 nM to reach a half-maximal effect (EC50). A half-maximal response in data set [4] (EC50) required 1700 ± 100 nM. Moreover, in data set [5] (Homo sapiens, HT-29, 72 h), it took 1300 ± 100 nM to reach a half-maximal effect (EC50). Further, the midpoint of the response in data set [6], the EC50, lay at 1400 ± 200 nM.

For the compound `CC(=O)O[C@H]1CC[C@@]2(C)C(CC[C@]3(C)C2CC=C2C4[C@@H](C)[C@H](C)CC[C@]4(C(=O)N4CCNCC4)CC[C@]23C)C1(C)C` (stereo partly drawn) [compound 7, 3β-Acetyloxy-28-(1-piperazinyl)-urs-12-en-28-one], the melting point was in the range of 187 to 190 °C. The compound also yielded an EC50 in data set [2] of 1700 ± 200 nM. In data set [3], this compound registered a concentration giving a half-maximal response (EC50) of 2100 ± 100 nM. In data set [4], the EC50 is 2100 ± 100 nM. The compound also showed an EC50 in data set [5] (Homo sapiens, HT-29, 72 h) of 1900 ± 300 nM. Besides, the EC50 in data set [6] is 2000 ± 400 nM.

`CC(=O)O[C@H]1CC[C@@]2(C)C(CC[C@]3(C)C2CCC2C4[C@H](C(C)=O)CC[C@]4(C(=O)N4CCNCC4)CC[C@]23C)C1(C)C` (stereo partly drawn) [compound 8, 3β-Acetyloxy-28-(1-piperazinyl)-30-norlupane-20,28-dione] gave a melting point of 127 to 130 °C. In addition, the EC50 in data set [2] worked out at 2700 ± 300 nM. In data set [3], the EC50 turned out to be 2600 ± 400 nM. This compound came in with an EC50 in data set [4] of 1300 ± 100 nM. The EC50 in data set [5] was 3900 ± 200 nM. In addition, in data set [5] (Homo sapiens, HT-29, 72 h), the EC50 is 3860 nM. Also, the midpoint of the response in data set [6], the EC50, lay at 1900 ± 400 nM.

`CC(=O)O[C@H]1CC[C@@]2(C)C(CC[C@]3(C)C2CC=C2C4CC(C)(C)CC[C@]4(C(=O)N4CCCNCC4)CC[C@]23C)C1(C)C` (stereo partly drawn) [compound 10, 3β-Acetyloxy-28-(1-homopiperazinyl)-olean-12-en-28-one] showed a melting point of 182 to 185 °C. In data set [2], this compound showed a concentration giving a half-maximal response (EC50) of 1600 ± 100 nM. Moreover, the EC50 in data set [3] was 2200 ± 100 nM. The EC50 in data set [4] amounted to 1800 ± 200 nM. In addition, in data set [5] (Homo sapiens, HT-29, 72 h), the EC50 was determined as 1900 ± 100 nM. Besides, the EC50 in data set [6] worked out at 1900 ± 900 nM.

Turning to `CC(=O)O[C@H]1CC[C@@]2(C)C(CC[C@]3(C)C2CC=C2C4[C@@H](C)[C@H](C)CC[C@]4(C(=O)N4CCCNCC4)CC[C@]23C)C1(C)C` (stereo partly drawn) [compound 11, 3β-Acetyloxy28-(1-homopierazinyl)-urs-12-en-28-one], the melting point lay in the range of 171 to 175 °C. For the same compound, a half-maximal effect in data set [2] (EC50) was put at 2400 ± 100 nM. The same compound came in with an EC50 in data set [3] of 2900 ± 240 nM. For the same compound, in data set [4], a half-maximal response (EC50) required 900 ± 100 nM. Also, in data set [5] (Homo sapiens, HT-29, 72 h), the EC50 amounted to 2000 ± 100 nM. The response in data set [6] was half-maximal at 3200 ± 200 nM (EC50).

Regarding `CC(=O)O[C@H]1CC[C@@]2(C)C(CC[C@]3(C)C2CCC2C4[C@H](C(C)=O)CC[C@]4(C(=O)N4CCCNCC4)CC[C@]23C)C1(C)C` (stereo partly drawn) [compound 12, 3β-Acetyloxy-28-(1-homopiperazinyl)-30-norlupane-20,28-dione], the melting point was 162 to 165 °C. Also, the concentration giving a half-maximal response (EC50) in data set [2] turned out to be 1800 ± 200 nM. In addition, in data set [3], the EC50 came to 1600 ± 100 nM. The midpoint of the response in data set [4], the EC50, lay at 600 ± 100 nM. In data set [5] (Homo sapiens, HT-29, 72 h), this compound displayed a 50% effective concentration (EC50) of 2300 ± 200 nM. Further, a half-maximal effect in data set [6] (EC50) was put at 900 ± 100 nM.

For the origin of these results see PMC9000871, “Rhodamine 101 Conjugates of Triterpenoic Amides Are of Comparable Cytotoxicity as Their Rhodamine B Analogs” (Molecules, 2022).
